Results reported in patent publication US7855202B2, “Imidazopyridine derivatives as A2B adenosine receptor antagonists” (Laboratorios Almirall, S.A., priority 2005, dated 2010).

These molecules were tested against T1, human A2B receptor (Homo sapiens, UniProt P29275) (assay: Adenosine 2B receptor subtype competition radioligand binding assay ([3H]-DPCPX, membranes of HEK293 cells)). Conditions: binding activity, 35 nM [3H]-DPCPX, A2B membranes from HEK293 cells.
T1 construct: membranes prepared from them
T1 sequence (P29275 1-332): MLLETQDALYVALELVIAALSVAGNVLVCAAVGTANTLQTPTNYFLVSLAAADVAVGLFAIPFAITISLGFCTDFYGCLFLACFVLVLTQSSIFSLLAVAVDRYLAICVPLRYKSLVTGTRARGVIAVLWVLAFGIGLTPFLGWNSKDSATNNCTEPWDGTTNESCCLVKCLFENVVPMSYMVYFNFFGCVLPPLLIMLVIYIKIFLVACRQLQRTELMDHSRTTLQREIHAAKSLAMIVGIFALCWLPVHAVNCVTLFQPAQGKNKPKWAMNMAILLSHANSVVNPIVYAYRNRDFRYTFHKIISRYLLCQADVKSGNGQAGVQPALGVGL
Method: Adenosine 2B Receptor Subtype Competition Radioligand Binding Assay
A2B membranes were prepared from HEK293 cells stably expressing the human A2B receptor that were purchased from Euroscreen (ES-013-C). Competition assays were carried out incubating in polypropylene 96 well-plates (no 267245, NUNC) containing 2 μl of either 1% DMSO solution, test compound or 100 μM 5′NECA (SIGMA E-2387) for non-specific binding, 100 μg of A2B-membranes (prepared in Tris-HCl 50 mM pH 6.5, MgCl2 10 mM, EDTA 1 mM, benzamidine 0.1 mM; buffer A) and 35 nM [^3H]-DPCPX (TRK1064, 128 Ci/mmol, Amersham), in a total volume of 200 μl of buffer A+2 UI/ml adenosine deaminase, for 60 minutes at room temperature. At the end of the incubation, samples were transferred to a GF/C filter plates (Milipore MAFCNOB50) pretreated for 15 min. with 250 μl of Tris-HCl 50 mM pH 6.5 (Buffer B). Samples were then filtered 4 times with 250 μl of buffer B. Samples were counted using 30 μl of Hisafe II (Perkin Elmer) in a Trilux counter.
`Fc1cnccc1-c1cc2nc(-c3cccnc3)[nH]c2nc1-c1cccnc1` [Example 39, 6-(3-Fluoropyridin-4-yl)-2,5-dipyridin-3-yl-3H-imidazo[4,5-b]pyridine] gave a Ki of 3.8 nM.
In the case of `CN(C)c1ccc(-c2nc3cc(-c4ccncc4F)c(-c4cccnc4)nc3[nH]2)cc1` [Example 7, N-{4-[6-(3-Fluoropyridin-4-yl)-5-pyridin-3-yl-3H-imidazo[4,5-b]pyridin-2-yl]phenyl}-N,N-dimethylamine], the Ki is reported as 1.7 nM.
`Cn1cncc1-c1nc2cc(-c3ccncc3F)c(-c3cccnc3)nc2[nH]1` [Example 46, 6-(3-Fluoropyridin-4-yl)-2-(1-methyl-1H-imidazol-5-yl)-5-pyridin-3-yl-3H-imidazo[4,5-b]pyridine] was tested, and the Ki was 9.5 nM.
`Fc1cnccc1-c1cc2nc(-c3ccncc3)[nH]c2nc1-c1cccnc1` [Example 12, 6-(3-Fluoropyridin-4-yl)-5-pyridin-3-yl-2-pyridin-4-yl-3H-imidazo[4,5-b]pyridine] showed a Ki of 1.8 nM.
`Fc1cccc(-c2nc3cc(-c4ccncc4F)c(-c4cccnc4)nc3[nH]2)c1` [Example 38, 2-(3-Fluorophenyl)-6-(3-fluoropyridin-4-yl)-5-pyridin-3-yl-3H-imidazo[4,6-b]pyridine] was tested, and the Ki was 2.8 nM.
In the case of `O=C(O)c1ccc(-c2nc3cc(-c4ccncc4F)c(-c4cccnc4)nc3[nH]2)cc1` [Example 11, 4-[6-(3-Fluoropyridin-4-yl)-5-pyridin-3-yl-3H-imidazo[4,5-b]pyridin-2-yl]benzoic acid], the Ki is reported as 8 nM.
With `O=c1[nH]c2cc(-c3ccncc3)c(-c3ccncc3F)nc2[nH]1` [Example 23, 5-(3-Fluoropyridin-4-yl)-6-pyridin-4-yl-1,3-dihydro-2H-imidazo[4,5-b]pyridin-2-one] the Ki was 7 nM.
`O=c1[nH]c2cc(-c3ccncc3F)c(-c3ncco3)nc2[nH]1` [Example 32, 6-(3-Fluoropyridin-4-yl)-5-(1,3-oxazol-2-yl)-1,3-dihydro-2H-imidazo[4,5-b]pyridin-2-one] was tested, and the Ki was 24 nM.
Work on `Fc1ccc(-c2nc3cc(-c4c(F)cncc4F)c(-c4cccnc4)nc3[nH]2)cc1` [Example 65, 6-(3,5-Difluoropyridin-4-yl)-2-(4-fluorophenyl)-5-pyridin-3-yl-3H-imidazo[4,5-b]pyridine] yielded a Ki of 2.8 nM.
With `Fc1ccc(Cc2nc3cc(-c4ccncc4F)c(-c4cccnc4)nc3[nH]2)cc1` [Example 16, 2-(4-Fluorobenzyl)-6-(3-fluoropyridin-4-yl)-5-pyridin-3-yl-3H-imidazo[4,6-b]pyridine] the Ki was 24 nM.
Molecule `O=c1[nH]c2cc(-c3c(F)cncc3F)c(-c3cccnc3)nc2[nH]1` [Example 67, 6-(3,5-Difluoropyridin-4-yl)-5-pyridin-3-yl-1,3-dihydro-2H-imidazo[4,5-b]pyridin-2-one] has a Ki of 26 nM.
`Cc1ccc(-c2nc3cc(-c4ccncc4F)c(-c4cccnc4)nc3[nH]2)cc1F` [Example 37, 2-(3-Fluoro-4-methylphenyl)-6-(3-fluoropyridin-4-yl)-5-pyridin-3-yl-3H-imidazo[4,5-b]pyridine] showed a Ki of 2.2 nM.
`COc1ccc(-c2nc3cc(-c4ccncc4F)c(-c4cccnc4)nc3[nH]2)cc1` [Example 6, 6-(3-Fluoropyridin-4-yl)-2-(4-methoxyphenyl)-6-pyridin-3-yl-3H-imidazo[4,5-b]pyridine] gave a Ki of 0.8 nM.
Work on `O=C(O)c1ccc(-c2nc3cc(-c4c(F)cncc4F)c(-c4cccnc4)nc3[nH]2)cc1` [Example 66, 4-[6-(3,5-Difluoropyridin-4-yl)-5-pyridin-3-yl-3H-imidazo[4,5-b]pyridin-2-yl]benzoic acid] yielded a Ki of 23 nM.
